Test results as given in patent US20240417408A1, “SMALL MOLECULE INHIBITORS OF KRAS G12C MUTANT” (MERCK SHARP & DOHME CORP., priority 2021, published 2024).

Assays:
[1] = target: T1, biotinylated KRAS protein containing G12C/C51S/C80L/C118S mutations (SEQ ID NO: 3) (Homo sapiens, UniProt P01116, C118S/C51S/C80L/G12C); assay: Test Example 4: SOS-catalyzed nucleotide exchange assay (TR-FRET); type: biochemical; conditions: 60-minute incubation with compound, then SOS and GTP, read-out: GNE IC50
T1 construct: biotin acceptor peptide (Avi-type, […]
Description: Test Example 4: Procedure for SOS-Catalyzed Nucleotide Exchange Assay
The SOS-catalyzed nucleotide exchange assay utilizes a preformed complex of recombinant biotinylated KRAS protein containing G12C/C51S/C80L/C118S mutations (SEQ ID NO: 3) (referred to as Biotinylated KRAS G12C protein hereafter), Bodipy-GDP, and Terbium-streptavidin. Compounds are added to this complex and then after a 60-minute incubation time the mixture is treated with SOS and unlabeled GTP. Small molecule inhibitors stabilize the Bodipy-GDP complex whereas the untreated protein rapidly exchanges Bodipy-GDP for unlabeled GTP resulting in reduced TR-FRET signal.
Biotinylated KRAS G12C protein is diluted to 2 μM in an EDTA buffer (20 mM HEPES, 50 mM sodium chloride, 10 mM EDTA, and 0.01% Tween) and incubated at room temperature for one hour. This mixture is then further diluted to 90 nM in an assay buffer (20 mM HEPES, 150 mM sodium chloride, 10 mM magnesium chloride, and 0.005% Tween) containing 15 nM of Terbium-Streptavidin (Invitrogen, catalog #PV3577) and 900 nM of Bodipy-GDP (Invitrogen, G22360) and incubated at room temperature for six hours. This solution is referred to as Biotinylated KRAS G12C stock solution and is then diluted to 9 nM in assay buffer to give the KRAS G12C assay solution.
(§1) Each test compound (10 mM stock in DMSO) is diluted in DMSO to make a 10-point, 3-fold dilution series in a 384-well low dead volume microplate (Labcyte, catalog #LP-0200). Once titrations are made, 10 nL of the diluted compounds is acoustically dispensed into a 384-well plate (Corning, catalog #3820) using an Echo 550 (Labcyte).
Each well receives 6 μL of Biotinylated KRAS G12C assay solution using a BioRAPTR (Beckman Coulter) and is incubated at room temperature for 60 minutes in a humidified chamber. Each well then receives 3 μL of 120 nM recombinant human SOS protein and 9 mM GTP (Sigma, G8877) in assay buffer and is incubated at room temperature for 60 minutes in a humidified chamber.
(§2) The time-resolved fluorescence resonance energy transfer signal of both plates is measured on an Envision (PerkinElmer) plate reader: Excitation filter=340 nm; emission 1=495 nm; emission 2=520 nm; dichroic mirror=D400/D505; delay time=100 μs. The signal of each well is determined as the ratio of the emission at 520 nm to that at 495 nm. Percent effect of each well is determined after normalization to control wells containing DMSO (no effect) or a saturating concentration of inhibitor (max effect). The apparent effect as a function of compound concentration is fit to a four-parameter logistic equation.

[2] = target: T2, Biotinylated KRAS G12C protein and GST-tagged Ras binding domain of c-RAF (Homo sapiens, UniProt P01116, C118S/C51S/C80L/G12C); assay: Test Example 5: RAS:RAF-RBD binding assay (TR-FRET); conditions: 30-minute incubation with compound, then GST-c-RAF RBD, read-out: cRaf IC50
T2 construct: biotin acceptor peptide (Avi-type, […]
Description: Test Example 5: Procedure for RAS:RAF-RBD Binding Assay
The RAF-Ras binding domain (RBD) protein interaction assay utilizes Biotinylated KRAS G12C protein (SEQ ID NO: 3) and the GST-tagged Ras binding domain of c-RAF (residues 50-132) from Jena Biosciences). Compounds are added to KRAS and then after a 30-minute incubation time the RAF-RBD and detection antibodies are added. Small molecule inhibitors that block the interaction of c-RAF-RBD prevent generation of a TR-FRET signal.
Biotinylated KRAS G12C protein is diluted to 20 nM in assay buffer (20 mM HEPES pH 7.5, 150 mM sodium chloride, 10 mM magnesium chloride, and 0.01% Tween20).
as §1, with “made, 50” for “made, 10”, “into” for “into a”, “384-well plates” for “384-well plate”, “Echo 655” for “Echo 550”
Each well of the assay plate receives 5 μL of Biotinylated KRAS G12C assay solution and is incubated at room temperature for 30 minutes. Each well then receives 5 μL of 100 nM GST-c-RAF RBD protein and a 1:100 dilution of both anti-GST-d2 (Cisbio catalog #61GSTDLA) and Strepavidin-Tb cryptate (Cisbio catalog #610SATLA) in assay buffer and the plate is mixed and briefly centrifuged followed by a 60 minute incubation at room temperature.
as §2, with “dichroic mirror=LANCE/DELFIA DUAL/Bias; Emission1=615” for “Excitation filter=340”, “Emission2=665” for “emission 1=495”, “nm;” for “nm; emission 2=520 nm; dichroic mirror=D400/D505;”, “time=[…].” for “time=100 μs.”, “665” for “520”, “615” for “495”

[3] = target: T3, Recombinant KRAS G12C mutant protein (amino acids 1-169, SEQ ID NO: 1) (Homo sapiens, UniProt P01116, G12C); assay: Test Example 1: inhibitory activity on KRAS G12C nucleotide (GDP-GTP) exchange reaction in vitro; type: biochemical; conditions: BODIPY FL GDP-bound KRAS G12C incubated with compound at 25° C. for 1 hour, then SOS1 and GMPPNP, read-out: GNE IC50
T3 construct: His6 (N); TEV protease site (ENLYFQG; named from own knowledge) (N); made in house; host or cells: E. coli
Description: Test Example 1: Evaluation of inhibitory activity of compounds on KRAS G12C nucleotide (GDP-GTP) exchange reaction in vitro
Recombinant KRAS G12C mutant protein (amino acids 1-169, SEQ ID NO: 1) and cleaved recombinant SOS1 (amino acids 564-1049, SEQ ID NO:2) proteins were expressed in E. coli and purified by affinity chromatography.
To prepare BODIPY FL GDP-bound KRAS G12C protein, 50 μM KRAS G12C protein was incubated with 0.5 mM BODIPY FL GDP in a loading buffer (20 mM Tris-HCl (pH 7.5), 50 mM NaCl, 1 mM DTT and 2.5 mM EDTA) for 1 hour on ice. After the incubation, MgCl2 was added to a final concentration of 10 mM, followed by incubation at room temperature for 30 minutes. The mixture was allowed to pass through a NAP-5 column to remove free nucleotides and purified BODIPY FL GDP-bound KRAS G12C protein was used for compound evaluation.
For the measurement of the inhibitory activity of compounds on GDP-GTP exchange rate of recombinant KRAS G12C, BODIPY FL GDP-bound KRAS G12C protein was incubated with various concentrations of compound in a reaction buffer (20 mM Tris-HCl (pH 7.5), 100 mM NaCl, 1 mM MgCl2, 2 mM DTT, 0.1% Tween 20) at 25° C. for 1 hour. After the incubation, recombinant SOS1 and Guanosine-5′-[(β,γ)-imido]triphosphate, Tetralithium salt (GMPPNP) (Jena Bioscience GmbH) were added and incubated at room temperature for 30 minutes to proceed SOS1-dependent GDP-GTP exchange reaction on KRAS G12C. Replacement of BODIPY FL GDP by GMPPNP was measured by calculating the ratio of fluorescence intensities of BODIPY FL before and after the exchange reaction. Inhibition % was calculated by setting the fluorescence ratio from the reaction without test compound (DMSO control) and the fluorescence ratio from the reaction without SOS1 and GMPPNP as 0% and 100% inhibition, respectively. IC50 values were calculated from dose titration curve using curve fitting by XLfit software (IDBS).

[4] = target: T4, interaction between KRAS G12C and cRAF-RBD (Homo sapiens, UniProt P01116, G12C); assay: Test Example 2: inhibitory activity on interaction between KRAS G12C and cRAF (Alpha technology); type: binding; conditions: GMPPNP-bound KRAS G12C incubated with compound at 25° C. for 1 hour, then cRAF-RBD
T4 construct: TEV protease site (ENLYFQG); made in house; host or cells: E. coli
Description: Test Example 2: Evaluation of Inhibitory Activity of Compounds on Interaction Between KRAS G12C and cRAF (In Vitro)
Interaction between recombinant KRAS G12C mutant protein (SEQ ID NO: 1) and cRAF RAS-binding domain (cRAF-RBD, amino acids 50-132, Jena Biosciences GmbH) was measured using Alpha technology (PerkinElmer Inc.).
Recombinant KRAS G12C protein with an N-terminal His-tag was expressed in E. coli and purified by affinity chromatography. To prepare GTP-bound form and GDP-bound form of KRAS G12C protein, 50 μM KRAS G12C protein was incubated with 1 mM GMPPNP (Jena Bioscience GmbH) and 1 mM GDP, respectively, in a loading buffer (20 mM Tris-HCl (pH 7.5), 50 mM NaCl, 1 mM DTT and 2.5 mM EDTA) for 1 hour on ice. After the incubation, MgCl2 was added to a final concentration of 10 mM, followed by incubation at room temperature for 30 minutes. The mixture was allowed to pass through a NAP-5 column to remove free nucleotides and purified, and the resultant nucleotide-bound KRAS G12C protein was used for compound evaluation.
For the measurement of the inhibitory activity of compounds on interaction between KRAS G12C and cRAF-RBD, GMPPNP-bound KRAS G12C protein was incubated with various concentrations of compound in a reaction buffer (20 mM Tris-HCl (pH 7.5), 100 mM NaCl, 1 mM MgCl2, 1 mM TCEP, 0.1% Tween 20) at 25° C. for 1 hour. After the incubation, recombinant cRAF-RBD and Alpha detection reagents were added and incubated at room temperature for 1.5 hours for binding. Interaction of KRAS G12C and cRAF-RBD was monitored by measuring Alpha signal. Inhibition % was calculated using the signal from the reaction without test compound (DMSO control) as 0% inhibition and the signal from the reaction using GDP-bound KRAS G12C in place of GMPPNP-bound KRAS G12C as 100% inhibition. IC50 values were calculated from dose titration curve using curve fitting by XLfit software (IDBS).

MIA PaCa-2 cells = assay: Test Example 3: growth inhibition activity on KRAS-G12C mutant cell line (MIA PaCa-2); type: cell-based; conditions: Homo sapiens, 72 h, MIA PaCa-2, 3-day culture, CellTiter-Glo 3D, read-out: CTX MiaPaCa IC50
Description: Test Example 3: Assay of Growth Inhibition Activity on KRAS-G12C Mutant Cell Line (MIA PaCa-2) (In Vitro)
MIA PaCa-2 cells (provided by Sumitomo Dainippon Pharma Co., Ltd.), which are a KRAS-G12C mutant human pancreas cancer cell line, were suspended in a 10% fetal bovine serum-containing RPMI1640 medium (manufactured by Fujifilm Wako Pure Chemical Corporation.). The cell suspension was seeded into each well of a 384-well U bottom microplate and cultured in an incubator containing 5% CO2 gas at 37° C. for 1 day. The compounds obtained in the Examples section were used as test compounds and were dissolved in DMSO, respectively, and each test compound was diluted with DMSO to give a concentration 500 times the final concentration. The resultant solution of the test compound in DMSO was diluted with the medium used for suspending cells and added to each well of the cell-culture plate to give a DMSO final concentration of 0.2%, followed by culture in an incubator containing 5% CO2 gas at 37° C. for another 3 days. The cell count after 3-day culture in the presence of the test compound was measured using CellTiter-Glo 3D Reagent (manufactured by Promega Corporation). To all cells were added with CellTiter-Glo 3D Reagent and mixed for 10 minutes. 30 minutes after mixing, luminescence was measured by a plate reader. The growth inhibition rate was calculated from the following equation, and the concentration of the test compound at which 50% inhibition was achieved (IC50 (nM)) was determined.
[formula] • T: the emission intensity in a well into which a test compound was added. • C: the emission intensity in a well into which a test compound was not added.

T1 sequence (P01116 with tags, fused parts or gaps isoform P01116-2 G12C/C51S/C80L/C118S): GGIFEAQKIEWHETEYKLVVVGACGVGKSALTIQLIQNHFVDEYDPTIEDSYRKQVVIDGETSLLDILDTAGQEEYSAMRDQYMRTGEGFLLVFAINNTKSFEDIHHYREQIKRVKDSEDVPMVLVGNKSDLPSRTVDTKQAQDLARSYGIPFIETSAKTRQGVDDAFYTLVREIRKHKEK
T3 sequence (P01116 with tags, fused parts or gaps isoform P01116-2 G12C): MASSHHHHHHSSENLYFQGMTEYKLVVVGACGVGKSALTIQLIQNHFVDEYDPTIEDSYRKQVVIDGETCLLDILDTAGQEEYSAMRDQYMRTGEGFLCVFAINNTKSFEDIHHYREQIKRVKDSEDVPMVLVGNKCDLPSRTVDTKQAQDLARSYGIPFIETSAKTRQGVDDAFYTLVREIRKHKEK
T4 sequence (P01116 with tags, fused parts or gaps isoform P01116-2 G12C): as above
T2 sequence (P01116 with tags, fused parts or gaps isoform P01116-2 G12C/C51S/C80L/C118S): as the sequence (P01116 with tags, fused parts or gaps isoform P01116-2 G12C/C51S/C80L/C118S) above

| SMILES | IC50 [1] | IC50 [2] | IC50 [3] | IC50 [4] | IC50 (MIA PaCa-2 cells) |
| --- | --- | --- | --- | --- | --- |
| COC1CCN(C/C=C/C(=O)N2CCN(c3nc(OC[C@@]45CCCN4C[C@H](F)C5)nc4c3COC(c3c(F)cc(F)c5ccc(N)nc35)C4)C[C@@H]2CC#N)CC1 (single isomer, unassigned) [Example 23a] | 131 nM | > 50000 nM |  |  |  |
| COC1CCN(C/C=C/C(=O)N2CCN(c3nc(OC[C@@]45CCCN4C[C@H](F)C5)nc4c3COC(c3c(F)cc(F)c5ccc(N)nc35)C4)C[C@@H]2CC#N)CC1 (single isomer, unassigned) [Example 23b] | 16 nM | 12700 nM |  |  |  |
| C#Cc1cccc2cccc(C3Cc4nc(OCC56CCCN5CC(F)C6)nc(N5CCN(C(=O)C=CCN6CCC(OC)CC6)C(CC#N)C5)c4CO3)c12 (single isomer, unassigned) [Example 25a] | 142 nM |  |  |  |  |
| COC1CCN(C/C=C/C(=O)N2CCN(c3nc(OCC4(CN5CCOCC5)CC4)nc4c3COC3(Cc5ccccc5C3)C4)C[C@@H]2CC#N)CC1 [Example 20, (S,E)-2-(1-(4-(4-methoxypiperidin-1-yl)but-2-enoyl)-4-(2′-((1-(morpholinomethyl)cyclopropyl)methoxy)-1,3,5′,8′-tetrahydrospiro[indene-2,7′-pyrano[4,3-d]pyrimidin]-4′-yl)piperazin-2-yl)acetonitrile] |  |  | 174 nM | > 6670 nM | 3350 nM |
| COC1CCN(C/C=C/C(=O)N2CCN(c3nc(OCC4(CN5CCOCC5)CC4)nc4c3COC3(CCc5cccc(Br)c53)C4)C[C@@H]2CC#N)CC1 (stereo partly drawn) [Example 21, 2-((2S)-4-(7-bromo-2′-((1-(morpholinomethyl)cyclopropyl)methoxy)-2,3,5′,8′-tetrahydrospiro[indene-1,7′-pyrano[4,3-d]pyrimidin]-4′-yl)-1-((E)-4-(4-methoxypiperidin-1-yl)but-2-enoyl)piperazin-2-yl)acetonitrile] |  |  | 287 nM | > 6670 nM | 1130 nM |
